Measured values reported in patent US20060276464A1, “Diarylsulfone sulfonamides and use thereof” (Wyeth, priority 2005, published 2006).
Values joined by “and” are separate entries in the source; they are usually repeats but may differ in a detail not shown here. Equal values may be shown once. Read-outs that look alike come from different tables or passages of the source.

How the values were obtained:
SFRP-1 [1] = target: T1, SFRP-1 (Homo sapiens, UniProt Q8N474); assay: Fluorescence polarization binding assay (competitive displacement of a probe compound from SFRP-1); conditions: fluorescence anisotropy, 45 nM SFRP-1, 20 nM probe;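 also: test compound competes with a fluorescent probe held by SFRP-1, seen as a drop in probe anisotropy after incubation in darkness, with anisotropy as function of rising compound dose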
T1 sequence (Q8N474 32-314): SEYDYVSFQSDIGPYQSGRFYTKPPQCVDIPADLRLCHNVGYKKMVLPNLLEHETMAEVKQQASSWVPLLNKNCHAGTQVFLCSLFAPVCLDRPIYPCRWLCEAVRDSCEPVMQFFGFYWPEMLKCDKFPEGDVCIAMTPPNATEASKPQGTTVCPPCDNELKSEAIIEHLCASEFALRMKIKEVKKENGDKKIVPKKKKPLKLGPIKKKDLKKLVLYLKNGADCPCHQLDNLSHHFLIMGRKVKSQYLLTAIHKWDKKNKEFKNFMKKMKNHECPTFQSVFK

SFRP-1 [2] = target: T1, SFRP-1; assay: Cell-based assay for in vitro measurement of SFRP-1/SARP2 antagonist activity (U2OS cells co-transfected with 16x TCF-tk-Luciferase reporter, Wnt and hSFRP-1); conditions: for fold induction at 15 µM / fold induction at 10 µM: U2OS; for fold induction at 10 µM: read-out: Fold Induction with SFRP-1, U2OS cells, single dose 10 μM, luciferase reporter, fold induction over SFRP-1 control;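 as to all read-outs here: U2OS cells co-transfected with a TCF-tk luciferase reporter, a Wnt vector, hSFRP-1 or empty vector and CMV-βgal, luciferase luminescence read in cell lysates alongside βgal activity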
[3] = read-out: Fold Induction with SFRP-1, Conc 15 μM, single dose, luciferase reporter, fold induction over SFRP-1 control, cells with SFRP-1
[4] = read-out: Fold Induction without SFRP-1, Conc 15 μM, single dose, luciferase reporter, cells without SFRP-1 (specificity control)
[5] = read-out: Fold Induction with SFRP-1, Conc 15 μM, with SFRP-1, fold induction over SFRP-1 control, single dose
[6] = read-out: Fold Induction without SFRP-1, Conc 15 μM, without SFRP-1, single dose

Compound: CC(C)c1ccc(S(=O)(=O)c2cc(Cl)sc2Cl)cc1S(=O)(=O)NCCc1ccccn1 [Example 511, 5-[(2,5-dichloro-3-thienyl)sulfonyl]-2-isopropyl-N-(2-pyridin-2-ylethyl)benzenesulfonamide]
- IC50 (SFRP-1 [1]): 1.8 µM and 2.3 µM
- fold induction at 15 µM (SFRP-1 [2]; [3]): 2.8
- fold induction at 15 µM (SFRP-1 [2]; [4]): 0.9

Compound: CC(C)c1ccc(S(=O)(=O)c2ccc(F)cc2)cc1S(=O)(=O)NCCCn1ccnc1 [Example 319, 5-[(4-fluorophenyl)sulfonyl]-N-[3-(1H-imidazol-1-yl)propyl]-2-isopropylbenzenesulfonamide]
- IC50 (SFRP-1 [1]): 0.6 µM
- fold induction at 15 µM (SFRP-1 [2]; [5]): 3.5
- fold induction at 15 µM (SFRP-1 [2]; [6]): 1.1

Compound: C[C@@H](CO)NS(=O)(=O)c1cc(S(=O)(=O)c2ccccc2)ccc1C(F)(F)F [Example 725, N-[(1S)-2-hydroxy-1-methylethyl]-5-(phenylsulfonyl)-2-(trifluoromethyl)benzenesulfonamide]
- IC50 (SFRP-1 [1]): 0.5 µM
- EC50 (SFRP-1 [2]): 1.26 µM
- fold induction at 10 µM (SFRP-1 [2]): 3.1

Compound: CC(C)(C)OC(=O)N1CCC[C@H](NS(=O)(=O)c2cc(S(=O)(=O)c3ccccc3)ccc2C(F)(F)F)C1 [Example 786, tert-butyl(3S)-3-({[5-(phenylsulfonyl)-2-(trifluoromethyl)phenyl]sulfonyl}amino)piperidine-1-carboxylate]
- IC50 (SFRP-1 [1]): 4.4 µM
- fold induction at 10 µM (SFRP-1 [2]): 1.7

Compound: COc1ccc(Cl)cc1S(=O)(=O)c1ccc(C(C)C)c(S(=O)(=O)NCCc2ccccn2)c1 [Example 509, 5-[(5-chloro-2-methoxyphenyl)sulfonyl]-2-isopropyl-N-(2-pyridin-2-ylethyl)benzenesulfonamide]
- IC50 (SFRP-1 [1]): 1.2 µM
- fold induction at 15 µM (SFRP-1 [2]; [3]): 1.9
- fold induction at 15 µM (SFRP-1 [2]; [4]): 1

Compound: CC(=O)Nc1ccc(C(=O)N2CCC(NS(=O)(=O)c3cc(S(=O)(=O)c4ccccc4)ccc3C)CC2)cc1 [Example 480, N-(4-{[4-({[2-methyl-5-(phenylsulfonyl)phenyl]sulfonyl}amino)piperidin-1-yl]carbonyl}phenyl)acetamide]
- IC50 (SFRP-1 [1]): 2.9 µM
- fold induction at 15 µM (SFRP-1 [2]; [5]): 1.7
- fold induction at 15 µM (SFRP-1 [2]; [6]): 1

Compound: Cc1cc(C)c(S(=O)(=O)c2ccc(F)cc2)cc1S(=O)(=O)NCCn1ccnc1 [Example 329, 5-[(4-fluorophenyl)sulfonyl]-N-[2-(1H-imidazol-1-yl)ethyl]-2,4-dimethylbenzenesulfonamide]
- IC50 (SFRP-1 [1]): 1 µM
- fold induction at 15 µM (SFRP-1 [2]; [5]): 2.9
- fold induction at 15 µM (SFRP-1 [2]; [6]): 0.9

Compound: CC[C@H](C)[C@@H](CO)Nc1ccc(S(=O)(=O)c2ccc(C)c(S(=O)(=O)NCCCn3ccnc3)c2)cc1 [Example 354, 5-[(4-{[(1S,2S)-1-(hydroxymethyl)-2-methylbutyl]amino}phenyl)sulfonyl]-N-[3-(1H-imidazol-1-yl)propyl]-2-methylbenzenesulfonamide]
- IC50 (SFRP-1 [1]): 1.4 µM
- fold induction at 15 µM (SFRP-1 [2]; [5]): 2.6
- fold induction at 15 µM (SFRP-1 [2]; [6]): 1

Compound: O=C(c1cc(Cl)nc(Cl)c1)N1CCC(NS(=O)(=O)c2cc(S(=O)(=O)c3ccccc3)ccc2C(F)(F)F)CC1 [Example 857, N-[1-(2,6-dichloroisonicotinoyl)piperidin-4-yl]-5-(phenylsulfonyl)-2-(trifluoromethyl)benzenesulfonamide]
- IC50 (SFRP-1 [1]): 0.15 µM
- EC50 (SFRP-1 [2]): 1.19 µM
- fold induction at 10 µM (SFRP-1 [2]): 4.4

Compound: CC(C)c1ccc(S(=O)(=O)c2ccc(C(C)(C)C)cc2)cc1S(=O)(=O)NCCCn1ccnc1 [Example 436, 5-[(4-tert-butylphenyl)sulfonyl]-N-[3-(1H-imidazol-1-yl)propyl]-2-isopropylbenzenesulfonamide]
- IC50 (SFRP-1 [1]): 1 µM
- fold induction at 15 µM (SFRP-1 [2]; [5]): 2.2
- fold induction at 15 µM (SFRP-1 [2]; [6]): 1

Compound: CC(C)c1ccc(S(=O)(=O)c2ccc(F)cc2)cc1S(=O)(=O)NC1CCOCC1 [Example 321, 5-[(4-fluorophenyl)sulfonyl]-2-isopropyl-N-tetrahydro-2H-pyran-4-ylbenzenesulfonamide]
- IC50 (SFRP-1 [1]): 1 µM
- fold induction at 15 µM (SFRP-1 [2]; [5]): 3.3
- fold induction at 15 µM (SFRP-1 [2]; [6]): 1.2

Compound: COc1cc(C(=O)N2CCC(NS(=O)(=O)c3cc(S(=O)(=O)c4ccccc4)ccc3C(F)(F)F)CC2)cc(Cl)n1 [Example 715, N-[1-(2-chloro-6-methoxyisonicotinoyl)piperidin-4-yl]-5-(phenylsulfonyl)-2-(trifluoromethyl)benzenesulfonamide]
- IC50 (SFRP-1 [1]): 0.4 µM
- EC50 (SFRP-1 [2]): 1.29 µM
- fold induction at 10 µM (SFRP-1 [2]): 4.9

Compound: CCc1ccc(S(=O)(=O)c2ccccc2)cc1S(=O)(=O)NCCCOC [Example 227, 2-ethyl-N-(3-methoxypropyl)-5-(phenylsulfonyl)benzenesulfonamide]
- IC50 (SFRP-1 [1]): 4 µM
- fold induction at 15 µM (SFRP-1 [2]; [5]): 2.7
- fold induction at 15 µM (SFRP-1 [2]; [6]): 0.8

Compound: C[C@@H](NS(=O)(=O)c1cc(S(=O)(=O)c2ccccc2)ccc1C(F)(F)F)[C@@H](O)c1ccccc1 [Example 686, N-[(1R,2S)-2-hydroxy-1-methyl-2-phenylethyl]-5-(phenylsulfonyl)-2-(trifluoromethyl)benzenesulfonamide]
- IC50 (SFRP-1 [1]): 0.5 µM
- EC50 (SFRP-1 [2]): 1.75 µM
- fold induction at 10 µM (SFRP-1 [2]): 3.5

Compound: COc1cccc(S(=O)(=O)c2ccc(C(F)(F)F)c(S(=O)(=O)NCCC#N)c2)c1 [Example 745, N-(2-cyanoethyl)-5-[(3-methoxyphenyl)sulfonyl]-2-(trifluoromethyl)benzenesulfonamide]
- IC50 (SFRP-1 [1]): 0.4 µM
- EC50 (SFRP-1 [2]): 0.631 µM
- fold induction at 10 µM (SFRP-1 [2]): 4.5

Compound: CN(CCNS(=O)(=O)c1cc(S(=O)(=O)c2ccccc2)ccc1C(F)(F)F)C(=O)OCC(C)(C)C [Example 867, 2,2-dimethylpropyl methyl[2-({[5-(phenylsulfonyl)-2-(trifluoromethyl)phenyl]sulfonyl}amino)ethyl]carbamate]
- IC50 (SFRP-1 [1]): 0.8 µM
- fold induction at 10 µM (SFRP-1 [2]): 2.8

Compound: O=S(=O)(NC1CCOCC1)c1cc(S(=O)(=O)c2cccc(O)c2)ccc1C(F)(F)F [Example 744, 5-[(3-hydroxyphenyl)sulfonyl]-N-(tetrahydro-2H-pyran-4-yl)-2-(trifluoromethyl)benzenesulfonamide]
- IC50 (SFRP-1 [1]): 0.2 µM
- EC50 (SFRP-1 [2]): 0.852 µM
- fold induction at 10 µM (SFRP-1 [2]): 3.1

Compound: O=S(=O)(NCC1CCNCC1)c1cc(S(=O)(=O)c2ccccc2)ccc1C(F)(F)F [Example 899, 5-(phenylsulfonyl)-N-(piperidin-4-ylmethyl)-2-(trifluoromethyl)benzenesulfonamide]
- IC50 (SFRP-1 [1]): 0.3 µM
- EC50 (SFRP-1 [2]): 0.894 µM
- fold induction at 10 µM (SFRP-1 [2]): 4.2

Compound: O=S(=O)(NCCO)c1cc(S(=O)(=O)c2ccccc2)ccc1C(F)(F)F [Example 681, N-(2-hydroxyethyl)-5-(phenylsulfonyl)-2-(trifluoromethyl)benzenesulfonamide]
- IC50 (SFRP-1 [1]): 1.1 µM
- EC50 (SFRP-1 [2]): 4.3 µM
- fold induction at 10 µM (SFRP-1 [2]): 3.4

Compound: CC(C)c1ccc(S(=O)(=O)c2cn(C)cn2)cc1S(=O)(=O)NCCc1ccccn1 [Example 513, 2-isopropyl-5-[(1-methyl-1H-imidazol-4-yl)sulfonyl]-N-(2-pyridin-2-ylethyl)benzenesulfonamide]
- IC50 (SFRP-1 [1]): 6 µM
- fold induction at 15 µM (SFRP-1 [2]; [3]): 2.2
- fold induction at 15 µM (SFRP-1 [2]; [4]): 1.2

Compound: Cc1ccc(S(=O)(=O)c2cccc(Cl)c2Cl)cc1S(=O)(=O)NCCCn1ccnc1 [Example 360, 5-[(2,3-dichlorophenyl)sulfonyl]-N-[3-(1H-imidazol-1-yl)propyl]-2-methylbenzenesulfonamide]
- IC50 (SFRP-1 [1]): 2 µM
- fold induction at 15 µM (SFRP-1 [2]; [5]): 1.9
- fold induction at 15 µM (SFRP-1 [2]; [6]): 0.9

Compound: CC(C)(C)OC(=O)N1CSC[C@H]1C(=O)N1CCC(NS(=O)(=O)c2cc(S(=O)(=O)c3ccccc3)ccc2C(F)(F)F)CC1 [Example 1055, tert-butyl (4R)-4-{[4-({[5-(phenylsulfonyl)-2-(trifluoromethyl)phenyl]sulfonyl}amino)piperidin-1-yl]carbonyl}-1,3-thiazolidine-3-carboxylate]
- IC50 (SFRP-1 [1]): 0.05 µM
- EC50 (SFRP-1 [2]): 0.096 µM

Compound: CN(C)c1ccc(S(=O)(=O)c2ccc(C(F)(F)F)c(S(=O)(=O)NC3CCNCC3)c2)cc1 [Example 843, 5-{[4-(dimethylamino)phenyl]sulfonyl}-N-piperidin-4-yl-2-(trifluoromethyl)benzenesulfonamide]
- IC50 (SFRP-1 [1]): 0.26 µM
- EC50 (SFRP-1 [2]): 2.01 µM
- fold induction at 10 µM (SFRP-1 [2]): 4.7

Compound: O=S(=O)(NCCc1cccnc1)c1cc(S(=O)(=O)c2ccc(O)cc2)ccc1C(F)(F)F [Example 814, 5-[(4-hydroxyphenyl)sulfonyl]-N-(2-pyridin-3-ylethyl)-2-(trifluoromethyl)benzenesulfonamide]
- IC50 (SFRP-1 [1]): 0.12 µM
- EC50 (SFRP-1 [2]): 0.307 µM
- fold induction at 10 µM (SFRP-1 [2]): 4.5

Compound: CN(CCCNS(=O)(=O)c1cc(S(=O)(=O)c2ccccc2)ccc1C(F)(F)F)C(=O)CCC(=O)O [Example 992, 4-{methyl[3-({(5-(phenylsulfonyl)-2-(trifluoromethyl)phenyl]sulfonyl}amino)propyl]amino}-4-oxobutanoic acid]
- IC50 (SFRP-1 [1]): 0.7 µM
- EC50 (SFRP-1 [2]): 3.16 µM

Compound: Cc1cccc(S(=O)(=O)c2ccc(C(C)C)c(S(=O)(=O)NCCc3ccccn3)c2)c1 [Example 579, 2-isopropyl-5-[(3-methylphenyl)sulfonyl]-N-(2-pyridin-2-ylethyl)benzenesulfonamide]
- IC50 (SFRP-1 [1]): 0.6 µM
- fold induction at 15 µM (SFRP-1 [2]; [3]): 3.4
- fold induction at 15 µM (SFRP-1 [2]; [4]): 1
